From ChEMBL document CHEMBL4433265, “Discovery of human lactate dehydrogenase 5 inhibitors (hLDH5) with anti-lung cancer activity through an in silico method and biological validation” (Bioorg Med Chem Lett, 2019) come the findings set out here.

The target in series [1] is T1, L-lactate dehydrogenase A chain (Homo sapiens, UniProt P00338). Put plainly: Inhibition of His-tagged human LDHA at 10 uM incubated for 10 mins using NADH and pyruvate by microplate reader based assay.
The test system of series [2] is A549. The series can be described thus: Growth inhibition of human A549 cells at 50 uM incubated for 72 hrs by MTT assay. Format: functional. The conditions noted are these: for inhibition of growth at 50 µM: A549, 72 h, read-out: GI.
Series [3] deals with NCI-H1975. Put plainly: Growth inhibition of human NCI-H1975 cells at 50 uM incubated for 72 hrs by MTT assay. Format: functional. Conditions: for inhibition of growth at 50 µM: NCI-H1975, 72 h, read-out: GI.
The target of series [4] is T1, L-lactate dehydrogenase A chain. The series can be described thus: Inhibition of His-tagged human LDHA incubated for 10 mins using NADH and pyruvate by microplate reader based assay.
Series [5] shares this target. The series can be described thus: Binding affinity to His-tagged human LDHA in presence of NAD+ by isothermal titration calorimetry.
The target is the same in series [6]. Put plainly: Binding affinity to His-tagged human LDHA in absence of NAD+ by isothermal titration calorimetry.
Series [7] shares this target. The series can be described thus: Inhibition of LDHA in human NCI-H1975 cells assessed as reduction in lactate production incubated for 4 hrs. Format: cell-based.
The subject of series [8] is NCI-H1975. The series can be described thus: Growth inhibition of human NCI-H1975 cells at 10 uM under hypoxic conditions by IncuCyte zoom live cell analysis. Format: functional, cell-based.
Series [9] has as its system NCI-H1975. Put plainly: Growth inhibition of human NCI-H1975 cells at 10 uM under normal oxygenated conditions by IncuCyte zoom live cell analysis. It counts as cell-based. Conditions: nci-h1975, 10 µM.
Series [10] relates to NCI-H1975. Put plainly: Growth inhibition of human NCI-H1975 cells under normal oxygenated conditions by IncuCyte zoom live cell analysis. Format: cell-based.
The subject of series [11] is NCI-H1975. The series can be described thus: Growth inhibition of human NCI-H1975 cells under hypoxic conditions by IncuCyte zoom live cell analysis. Format: functional, cell-based.

Each structure is given as a SMILES string. Active and inactive are the calls of the source. The rule behind the calls is not given here.

As to `O=C(c1cc2n(n1)CCCO2)N1CCC(N2CCN(c3ncccc3C(F)(F)F)CC2)CC1`, the inhibition entry in series [1] was “inactive”. Also, the “growth inhibition (GI)” value in series [2] and in series [3] was “inactive” throughout.

With `N#Cc1cccnc1N1CCC(CNC(=O)C(=O)Nc2cccc(C(F)(F)F)c2)CC1`, the inhibition result in [1] was “inactive”. In addition, the values for the inhibition of growth at 50 µM in series [2] and in series [3] were 33.5% and 25.9%, respectively.

In [1], `O=C(CNC1CCN(c2ncc(F)cn2)CC1)COCc1ccccc1` had an inhibition of 45.8%. The inhibition of growth at 50 µM in [2] was 55.3%; in series [3] it was 39.8%.

`COc1cc(=O)n2c(c1CCCc1cc(OC)c(OC)c(OC)c1)CCC2`: in series [1], the inhibition is 25.7%. Further, the “growth inhibition (GI)” value in [2] and in [3] was “inactive” each time.

Regarding `COc1ccccc1OCC(=O)NC1CCC(Oc2nc(C)cc(C)n2)CC1` (stereo not drawn), the inhibition in series [1] is 78.5%. For the same compound, the results for the inhibition of growth at 50 µM in series [2] and in [3] were 23.3% and 45.2%, respectively.

On to `O=C1N[C@](c2ccc(N3CCOCC3)cc2)(c2ccsc2)CC(O)=C1Sc1ccccc1Cl`, for which the inhibition in [1] came to 100%. For the same compound, the inhibition of growth at 50 µM in series [2] and in series [3] was 100% throughout.

For `COc1cccc(OCC(=O)Nc2ccc3c(c2)NC(=O)C(C)(C)CO3)c1`, the inhibition entry in series [1] is “inactive”. Moreover, the inhibition of growth at 50 µM in series [2] amounted to 26.9%; in series [3], 15.3%.

Turning to `O=C(NCC(=O)N1CCC(Cc2nc(C3CC3)no2)CC1)c1ccccc1`, the figures for the inhibition in [1] and in [7] were 95.2% and “Dose-dependent effect”, respectively. Moreover, the results for the inhibition of growth at 50 µM in series [2] and in [3] were 69.3% and 58.7%, respectively. In series [4], this compound had an EC50 of 0.7 µM. Besides, the dissociation constant (Kd) was 1.02 µM in [5] and 43.2 µM in series [6]. For the same compound, the “growth inhibition (GI)” value in series [8] was “Active”. Further, the “growth inhibition (GI)” value in series [9] is given as “Non-Toxic”. For the same compound, the IC50 was 36.5 µM in [10] and 5.7 µM in [11].

With `Cc1ncn(CC(=O)N2CCC(Oc3cncc(N(C)C)n3)C2)c(=O)c1C` (stereo not drawn), the inhibition in series [1] came out at 66.3%. In addition, the “growth inhibition (GI)” value in series [2] and in series [3] was “inactive” in each case.

Regarding `O=C(c1cc2n(n1)CCCC2)N1CCN(C(=O)C2(c3cccs3)CCCC2)CC1`, the inhibition result in series [1] is “inactive”. For the same compound, the “growth inhibition (GI)” value in [2] and in [3] was “inactive” throughout.
